Test results taken from ChEMBL document CHEMBL1149275, “Structure-activity relationships of acetylcholinesterase noncovalent inhibitors based on a polyamine backbone. 3. Effect of replacing the inner polymethylene chain with cyclic moieties” (J Med Chem, 2004).

Assays:
Cholinesterase = Cholinesterase (Homo sapiens, UniProt P06276)
Description: Inhibition of human recombinant BChE

Acetylcholinesterase = Acetylcholinesterase (Homo sapiens, UniProt P22303)
Description: Inhibition of human recombinant AChE

[1] = target: T1, Muscarinic acetylcholine receptor M2 (Homo sapiens) (UniProt P08172); conditions: Cavia porcellus; Cardiac atrium
T1 sequence (whole entry): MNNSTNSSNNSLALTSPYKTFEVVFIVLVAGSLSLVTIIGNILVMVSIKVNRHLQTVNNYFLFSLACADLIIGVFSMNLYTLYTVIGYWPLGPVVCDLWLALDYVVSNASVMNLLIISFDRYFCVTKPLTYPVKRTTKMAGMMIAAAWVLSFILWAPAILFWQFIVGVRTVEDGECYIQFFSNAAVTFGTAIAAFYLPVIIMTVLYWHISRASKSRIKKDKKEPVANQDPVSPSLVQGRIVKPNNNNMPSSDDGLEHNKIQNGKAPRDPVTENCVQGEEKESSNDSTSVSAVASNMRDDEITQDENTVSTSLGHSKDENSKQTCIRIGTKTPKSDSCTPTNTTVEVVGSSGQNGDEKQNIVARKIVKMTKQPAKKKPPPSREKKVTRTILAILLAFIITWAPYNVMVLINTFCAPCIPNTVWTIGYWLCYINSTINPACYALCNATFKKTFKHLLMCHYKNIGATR
Description: Antagonist activity at muscarinic M2 receptor assessed as contraction of electrically stimulated guinea pig left atrium at 10 uM

Sequence of Cholinesterase (P06276 whole entry): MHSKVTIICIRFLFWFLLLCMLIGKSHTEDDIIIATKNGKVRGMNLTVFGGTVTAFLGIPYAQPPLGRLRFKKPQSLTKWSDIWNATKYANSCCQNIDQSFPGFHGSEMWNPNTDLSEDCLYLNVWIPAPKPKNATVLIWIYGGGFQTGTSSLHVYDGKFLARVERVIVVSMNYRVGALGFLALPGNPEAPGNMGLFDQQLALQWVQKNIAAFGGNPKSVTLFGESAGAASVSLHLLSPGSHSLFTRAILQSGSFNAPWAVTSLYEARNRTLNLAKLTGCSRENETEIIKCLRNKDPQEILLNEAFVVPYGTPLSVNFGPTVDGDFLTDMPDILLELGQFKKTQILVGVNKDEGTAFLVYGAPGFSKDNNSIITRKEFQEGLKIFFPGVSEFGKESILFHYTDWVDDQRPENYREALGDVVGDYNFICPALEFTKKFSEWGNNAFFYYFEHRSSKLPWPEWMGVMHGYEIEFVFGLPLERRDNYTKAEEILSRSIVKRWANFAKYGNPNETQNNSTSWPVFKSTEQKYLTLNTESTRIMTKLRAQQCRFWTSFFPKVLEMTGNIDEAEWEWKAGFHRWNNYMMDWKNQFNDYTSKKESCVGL
Sequence of Acetylcholinesterase (P22303 whole entry): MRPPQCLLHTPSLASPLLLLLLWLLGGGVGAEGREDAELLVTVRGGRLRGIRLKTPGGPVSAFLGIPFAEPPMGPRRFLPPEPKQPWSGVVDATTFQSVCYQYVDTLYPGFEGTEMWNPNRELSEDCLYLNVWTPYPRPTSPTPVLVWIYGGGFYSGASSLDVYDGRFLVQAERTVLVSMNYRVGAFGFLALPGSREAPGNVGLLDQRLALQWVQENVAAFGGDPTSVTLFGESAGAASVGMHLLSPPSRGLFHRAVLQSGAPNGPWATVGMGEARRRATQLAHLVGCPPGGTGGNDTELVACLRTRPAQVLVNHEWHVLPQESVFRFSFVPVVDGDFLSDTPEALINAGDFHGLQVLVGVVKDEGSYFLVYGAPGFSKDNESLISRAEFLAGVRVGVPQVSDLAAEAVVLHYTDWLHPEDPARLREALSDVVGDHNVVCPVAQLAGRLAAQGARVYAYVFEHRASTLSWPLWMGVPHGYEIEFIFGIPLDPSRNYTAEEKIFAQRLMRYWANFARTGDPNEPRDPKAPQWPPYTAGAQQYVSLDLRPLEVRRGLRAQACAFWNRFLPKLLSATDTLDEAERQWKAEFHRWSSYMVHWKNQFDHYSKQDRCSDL

Compound	IC50 (Cholinesterase)	IC50 (Acetylcholinesterase)	pKb [1]	Ki (Acetylcholinesterase)
CCN(CCCCCCNc1ccc(-c2ccc(NCCCCCCN(CC)Cc3ccccc3OC)cc2)cc1)Cc1ccccc1OC	15.5 µM	2.63 µM	–	–
CC[N+](C)(CCCCCC(=O)N1CCC(CCC2CCN(C(=O)CCCCC[N+](C)(CC)Cc3ccccc3OC)CC2)CC1)Cc1ccccc1OC (stereo not given)	1.86 µM	0.00575 µM	–	–
CCN(CCCCCC(=O)N1CCC(CC2CCN(C(=O)CCCCCN(CC)Cc3ccccc3OC)CC2)CC1)Cc1ccccc1OC	6.46 µM	0.00331 µM	–	–
CC[N+](C)(CCCCCC(=O)N1CCC(CCCC2CCN(C(=O)CCCCC[N+](C)(CC)Cc3ccccc3OC)CC2)CC1)Cc1ccccc1OC (stereo not given)	0.661 µM	0.00575 µM	–	–
COc1ccccc1CN(C)CCCCCC(=O)N(C)CCCCCCCCN(C)C(=O)CCCCCN(C)Cc1ccccc1OC	–	–	6.39	–
CCN(CCCCCC(=O)N1CCC(CCCC2CCN(C(=O)CCCCCN(CC)Cc3ccccc3OC)CC2)CC1)Cc1ccccc1OC	3.39 µM	0.00661 µM	–	–
CC[N+](C)(CCCCCC(=O)Nc1ccc(CCc2ccc(NC(=O)CCCCC[N+](C)(CC)Cc3ccccc3OC)cc2)cc1)Cc1ccccc1OC (stereo not given)	1.1 µM	0.12 µM	–	–
CCN(CCCCCC(=O)N1CCC(CCC2CCN(C(=O)CCCCCN(CC)Cc3ccccc3OC)CC2)CC1)Cc1ccccc1OC	3.63 µM	0.00741 µM	–	–
CCN(CCCCCC(=O)N(C)CCCCCCCCN(C)C(=O)CCCCCN(CC)Cc1ccccc1OC)Cc1ccccc1OC	–	–	5.65	–
CCN(CCCCCCNc1ccc(Cc2ccc(NCCCCCCN(CC)Cc3ccccc3OC)cc2)cc1)Cc1ccccc1OC	1.62 µM	1.07 µM	–	–
CCN(CCCCCC(=O)Nc1ccc(CCc2ccc(NC(=O)CCCCCN(CC)Cc3ccccc3OC)cc2)cc1)Cc1ccccc1OC	1.7 µM	0.17 µM	–	–
CCN(CCCCCC(=O)Nc1ccc(Cc2ccc(NC(=O)CCCCCN(CC)Cc3ccccc3OC)cc2)cc1)Cc1ccccc1OC	1.82 µM	0.0631 µM	–	–
CCN(CCCCCC(=O)Nc1ccc(-c2ccc(NC(=O)CCCCCN(CC)Cc3ccccc3OC)cc2)cc1)Cc1ccccc1OC	1.86 µM	0.0363 µM	–	–
CCN(CCCCCCNc1ccc(CCc2ccc(NCCCCCCN(CC)Cc3ccccc3OC)cc2)cc1)Cc1ccccc1OC	95.5 µM	30.9 µM	–	–
CCN(CCCCCC(=O)N1CCC(C2CCN(C(=O)CCCCCN(CC)Cc3ccccc3OC)CC2)CC1)Cc1ccccc1OC	8.51 µM	0.00331 µM	6.18	0.00567 µM
